Data reported in paper PMC10054553, “Development of the First ^18F-Labeled Radiohybrid-Based Minigastrin Derivative with High Target Affinity and Tumor Accumulation by Substitution of the Chelating Moiety” (Pharmaceutics, 2023).

Target: T1, CCK-2R (Rattus norvegicus, UniProt P30553)
T1 construct: CCK-2R-expressing rat pancreatic cancer cells AR42J; host or cells: AR42J (rat pancreatic cancer cells)
T1 sequence (P30553 1-452): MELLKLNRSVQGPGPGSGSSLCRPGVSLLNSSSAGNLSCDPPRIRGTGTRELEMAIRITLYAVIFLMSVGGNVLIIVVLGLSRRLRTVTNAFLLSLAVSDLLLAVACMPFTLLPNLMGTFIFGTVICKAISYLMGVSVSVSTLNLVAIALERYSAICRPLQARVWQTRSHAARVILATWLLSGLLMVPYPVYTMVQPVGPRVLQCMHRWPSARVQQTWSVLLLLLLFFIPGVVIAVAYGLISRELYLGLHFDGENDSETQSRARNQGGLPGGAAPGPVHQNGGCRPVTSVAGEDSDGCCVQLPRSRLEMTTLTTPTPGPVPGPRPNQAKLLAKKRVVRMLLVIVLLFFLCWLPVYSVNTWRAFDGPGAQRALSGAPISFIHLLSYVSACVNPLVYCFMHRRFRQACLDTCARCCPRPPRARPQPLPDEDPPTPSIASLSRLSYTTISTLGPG
Test: CCK-2R-mediated internalization on AR42J cells
Format: cell-based
Details: for Internalization Values (%F11N) 6 h: relative to the reference DOTA-PP-F11N; for Internalization Values (%) 1 h / Internalization Values (%) 2 h / Internalization Values (%) 4 h / Internalization Values (%) 6 h: % of applied activity, 37 °C, 0.25 pmol/well, AR42J cells
Experimental: Figure 3 (a) CCK-2R-mediated internalization (0.25 pmol/well) measured on AR42J cells as percent (%) of applied activity (incubation at 37 °C for 1, 2, 4 and 6 h, RPMI 1640, 5 mm L-Gln, 5 mL non-essential amino acids (100×), 10% FCS + 5% BSA (v/v), 3.0 × 10^5 cells/mL/well). (b) CCK-2R-mediated internalization of [^177Lu]Lu-DOTA-rhCCK-16 (green), [^177Lu]Lu-(R)-DOTAGA-rhCCK-16 (orange), [^177Lu]Lu-DOTA-rhCCK-18 (red) and […] after incubation at 37 °C for 6 h as percent of reference (% of [^177Lu]Lu-DOTA-PP-F11N). * data taken from Holzleitner et al..
Cell Culture. CCK-2R-expressing rat pancreatic cancer cells AR42J (CLS GmbH, Eppelheim, Germany) were cultivated in monolayers in CELLSTAR® cell culture flasks acquired from Greiner Bio-One GmbH (Frickenhausen, Germany) at 37°C in a humidified atmosphere (5% CO2) using a HERAcell 150i-Incubator (Thermo Fisher Scientific Inc., Waltham, United States). The nutrient medium RPMI 1640 medium, supplemented with 5 mM L-Gln 5 mL non-essential amino acids (100×) and 10% FCS, was used. Furthermore, a Dulbecco’s PBS solution with 0.1% EDTA (v/v) was applied to detach the cells for cell passaging. The detached cells were counted using a Neubauer hemocytometer (Paul Marienfeld, Lauda-Königshofen, Germany). In addition, all operations under sterile conditions were accomplished using a MSC-Advantage safety workbench (Thermo Fisher Scientific Inc., Waltham, United States). […]
Internalization Studies. For the determination of the internalization kinetics of the various peptides, AR42J cells (3.0 × 10^5 cells/well) were seeded into polylysine-coated 24-well plates, adding 1 mL of nutrient medium. Afterwards, the cells were incubated for 24 ± 2 h at 37°C in a humidified atmosphere […]
On the day of the experiment, the medium was removed, and each well was washed with nutrient medium (300 μL). Afterwards 200 μL of nutrient medium, 25 μL of the 177Lu-labeled peptide (0.3 pmol, n = 6) and either 25 μL of nutrient medium for internalization studies ( n = 3) or 25 μL of [natLu]Lu-DOTA-PP-F11N (10 μmol) for competition studies ( n = 3) were added. Thereafter, the assay was incubated for various time points (1, 2, 4 and 6 h) at 37°C in a humidified atmosphere (5% CO2). After incubation, the cells were put on ice for at least 1 min to stop internalization kinetics and the supernatant was collected. Then, the cells were washed with an ice-cold nutrient medium (300 μL) and both fractions were unified. In order to displace the peptides from the cell membrane, 300 μL of an ice-cold glycine buffer (1 M, pH = 2.2) were added and the cells were incubated on ice for 15 min. Afterwards, the supernatant was collected, and the cells were washed with an ice-cold glycine buffer (300 μL, 1 M, pH = 2.2) while both fractions were unified. After lysis of the cells with NaOH (300 μL, 1 N) for 15 min, the respective wells were washed with NaOH (300 μL, 1 N) and both fractions were unified. The radioactivity of the supernatant, the acid wash and the lysed fractions were quantified using a γ-counter.
Lipophilicity Studies. Lipophilicity (depicted as octanol-phosphate-buffered saline solution (PBS, pH = 7.4) distribution coefficient, logD7.4) was determined by dissolving the 177Lu-labelled peptide (approx. 1 MBq) in a mixture (1/1, v/v) of n-octanol and PBS. The suspension was vortexed in a reaction vial (1.5 mL) for 3 min at room temperature and the vial was centrifuged at 9000 rpm for 5 min (Biofuge 15, Heraus Sepatech GmbH, Osterode, Germany). Amounts of 200 μL aliquots of both layers were measured separately in a γ-counter (Perkin Elmer, Waltham, MA, USA). The experiment was repeated […]
Stability Studies in Human Serum. The 177Lu- as well as 67Ga-labeled CCK-2R ligands (1 nmol, approx. 5 MBq) were incubated for 24 h in human serum (200 μL) at 37 °C. After incubation, ice-cold EtOH (125 μL) and MeCN (375 μL) were added and the suspension was centrifuged for 5 min at […]
5000 rpm. […]

Compound	Internalization Values (%F11N) 6 h [%F11N]	Internalization Values (%) 1 h [%]	Internalization Values (%) 2 h [%]	Internalization Values (%) 4 h [%]	Internalization Values (%) 6 h [%]
CCCC[C@H](NC(=O)[C@H](Cc1c[nH]c2ccccc12)NC(=O)CNC(=O)[C@H](Cc1ccc(O)cc1)NC(=O)[C@H](C)NC(=O)CC[C@@H](NC(=O)CC[C@@H](NC(=O)CC[C@@H](NC(=O)CC[C@@H](NC(=O)CC[C@@H](NC(=O)CC[C@@H](NC(=O)[C@@H](CNC(=O)c1ccc([Si](F)(C(C)(C)C)C(C)(C)C)cc1)NC(=O)CN1CCN(CC(=O)O)CCN(CC(=O)O)CCN(CC(=O)O)CC1)C(=O)O)C(=O)O)C(=O)O)C(=O)O)C(=O)O)C(=O)O)C(=O)N[C@@H](CC(=O)O)C(=O)N[C@@H](Cc1ccccc1)C(N)=O [[^177Lu]Lu-DOTA-rhCCK-16, metal not drawn]	215 ± 7	19.5 ± 2.3	33.1 ± 1.7	43.9 ± 0.7	51.1 ± 1.7
CCCC[C@H](NC(=O)[C@H](Cc1c[nH]c2ccccc12)NC(=O)CNC(=O)[C@H](Cc1ccc(O)cc1)NC(=O)[C@H](C)NC(=O)CC[C@@H](NC(=O)CC[C@@H](NC(=O)CC[C@@H](NC(=O)CC[C@@H](NC(=O)CC[C@@H](NC(=O)CC[C@@H](NC(=O)CC[C@@H](NC(=O)CC[C@@H](NC(=O)[C@@H](CNC(=O)c1ccc([Si](F)(C(C)(C)C)C(C)(C)C)cc1)NC(=O)CN1CCN(CC(=O)O)CCN(CC(=O)O)CCN(CC(=O)O)CC1)C(=O)O)C(=O)O)C(=O)O)C(=O)O)C(=O)O)C(=O)O)C(=O)O)C(=O)O)C(=O)N[C@@H](CC(=O)O)C(=O)N[C@@H](Cc1ccccc1)C(N)=O [[^19F]F-[^177Lu]Lu-DOTA-rhCCK-18] [metal not drawn]	244 ± 7	15.4 ± 1.4	24.1 ± 1.6	41.6 ± 2.6	54.8 ± 1.5
